Measured values reported in US20080090780A1, “Storage stable azadirachtin pesticide formulation” (PBI/GORDON CORPORATION, priority 2006, published 2008).
Like-named read-outs stand apart in the source and are kept apart here.

Assays:
[1] = test system: potato aphids; test: Greenhouse tests on live potato aphids on tomatoes; format: in vivo; conditions: Azadirachtin 0.0008 lbs/gal, bifenthrin 0.005 lbs/gal, combination as labelled
[2] = format: physicochemical; conditions: for % Decomposition of AZA A and PYR: JeffSol AG-1555, Triton X-100; for loss of AZA A: AZA alone without incorporation of a PYR (Table 2)
Source text: This invention relates to a storage stable, efficacious pesticide formulation dilutable by the user that contains azadirachtin made up of azadirachtin A and azadirachtin B, a pyrethrin or pyrethroid, a solvent, and an emulsifier. The pyrethrin or pyrethroid complexes with and minimizes decomposition of the azadirachtin A. An amount of the pyrethrin or pyrethroid is incorporated to form a complex with the azadirachtin A on opposite sides of the molecular structure thereof. […] Preferably, an aprotic heterocyclic or mono, di-, or polycyclic aromatic solvent is provided having C2-C25 carbon atoms and that is compatible with the azadirachtin A and pyrethrin or pyrethroid. In addition, a non-ionic emulsifier is preferably included in the formulation.
When a PYR was added to AZA A, the decomposition pathway of AZA A was stabilized, as shown by Table 2.
FIG. 1 is a plot of the percent AZA A decomposition on the Y-axis, as compared with the mole ratio of bifenthrin/AZA A on the X-axis, under an accelerated aging test of 30 days at 40° C. The loss of AZA A decreased as the mole ratio of PYR to AZA A approached 2:1, where the PYR was present in an amount to form a complex with the AZA A on opposite sides of the molecular structure thereof and sufficient to prevent further decomposition of the AZA A.
FIG. 3 compares the percent of AZA A decomposition on the Y-axis with the mole ratio of zeta cypermethrin to AZA A on the X-axis, also under an accelerated aging test of 30 days at 40° C.

[3] = Azadirachtin stability tests in seed oil carrier (soybean oil / Tween 85 containing 5% water); format: physicochemical; conditions: Soybean Oil (50% Seed Oil/50% Tween 85 containing 5% water), 40° C., 32 Days
Source text: AZA plus PYRs have been studied in conventional oil systems, such as soybean oil, canola oil, methylated soybean oil, epoxidized soybean oil, rape seed oil, and olive oil, all of which contained an emulsifier having as much as 5% of water. None of these oils in combination with the PYR stabilized the AZA A in the formulation, largely because of the presence of moisture in the emulsifier. When AZA is combined with PYR and the types of solvents and emulsifiers disclosed herein, the AZA A of the formulation is stabilized. Table 9 records test results of AZA+soybean oil as compared with AZA+PYR+soybean oil.

[4] = Azadirachtin A/B 0.50% + Bifenthrin 2.01%, 1 Month/40° C.
[5] = Azadirachtin A/B 0.50% + Bifenthrin 2.01%, 1 Month/Ambient
[6] = Azadirachtin A/B 1.50% + 1.50% second active, 1 Month/40° C.
[7] = Azadirachtin A/B 1.50% + 1.50% second active, 1 Month/Ambient
[8] = Azadirachtin A/B 1.75% + Bifenthrin 1.00%, 1 Month/40° C.
[9] = Azadirachtin A/B 2.00% + Bifenthrin 0.50%, 1 Month/40° C.

| Compound | Live potato aphids on tomatoes (aphid mean numbers) ([1]; 0 DAT1) [a] | Live potato aphids on tomatoes (aphid mean numbers) ([1]; 0 DAT2) | Live potato aphids on tomatoes (aphid mean numbers) ([1]; 3 DAT1) [b] | Live potato aphids on tomatoes (aphid mean numbers) ([1]; 3 DAT2) | Live potato aphids on tomatoes (aphid mean numbers) ([1]; 7 DAT1) | Live potato aphids on tomatoes (aphid mean numbers) ([1]; 7 DAT2) | % Decomposition of AZA A and PYR [2, 4] [%] | % Decomposition of AZA A and PYR [2, 5] [%] | % Decomposition of AZA A and PYR [2, 6] [%] | % Decomposition of AZA A and PYR [2, 7] [%] | % Decomposition of AZA A and PYR [2, 8] [%] | % Decomposition of AZA A and PYR [2, 9] [%] | % Decomposition of AZA A and PYR ([2]; Bifenthrin only 3.01% AI, 1 Month/40° C.) [%] | loss of AZA A (percent of AZA A decomposition) ([2]; 1:1 mole ratio zeta cypermethrin to AZA A, accelerated aging test of 30 days at 40° C., FIG. 3) [%] | loss of AZA A [2] | AZA A Stability in Formulation ([3]; AZA A/B 0.50% + Bifenthrin 2.00%) [%] | AZA A Stability in Formulation ([3]; AZA A/B 0.50% + Permethrin 2.00%) [%] | AZA A Stability in Formulation ([3]; AZA A/B 0.50% + Z-Cypermethrin 2.00%) [%] | AZA A Stability in Formulation ([3]; AZA A/B 3.00% alone) [%] | % Decomposition of AZA A and PYR ([2]; Azadirachtin A/B only 3.01% AI, 1 Month/40° C.) [%] |
| --- | --- | --- | --- | --- | --- | --- | --- | --- | --- | --- | --- | --- | --- | --- | --- | --- | --- | --- | --- | --- |
| Cc1c(COC(=O)[C@@H]2[C@H](/C=C(\Cl)C(F)(F)F)C2(C)C)cccc1-c1ccccc1 (racemic) [Bifenthrin, bifenthrin] | 357 | 162 b | 131 | 89 b | 179 b | 64 b | −2.67 | −2.42 | −2.96 | −2.82 | −2.21 | −0.82 | −2.54 | – | – | – | – | – | – | – |
| C/C=C(\C)C(=O)O[C@H]1C[C@@H](OC(C)=O)[C@@]2(C(=O)OC)CO[C@@H]3C2[C@]12CO[C@@](O)(C(=O)OC)[C@H]2[C@](C)(C12OC1(C)C1C[C@H]2O[C@@H]2OC=CC12O)[C@@H]3O (stereo partly drawn) [AZA A, azadirachtin A] | – | – | – | – | – | – | – | – | – | – | – | – | – | 1 | more than 12% | – | – | – | – | – |
| azadirachtin [Azadirachtin A/B] | 338 | 11 c | 120 | 3 c | 18 c | 1 c | −4.30 | −1.03 | −4.20 | −0.14 | −7.37 | −7.61 | – | – | 12.64% | −54.27 | −52.62 | −48.25 | −27.02 | −12.64 |
